Results reported in publication PMC12207908, “The broad‐spectrum antimicrobial peptide BMAP‐27B potentiates carbapenems against NDM‐producing pathogens in food animals” (mLife, 2025).
Converted amounts (≈) assume the structure as drawn.

Legend:
Assay in all cases: MIC, broth microdilution
Format in all cases: cell-based
CREC6 = settings: Escherichia coli, MHB, 1 × 10^6 CFU/ml, 16–18 h, 37°C, independent triplicates
Experimental: (§1) The MIC of BMAP‐27B and other antibiotics was determined using the broth microdilution method, following the guidelines established by the Clinical and Laboratory Standards Institute (CLSI). Briefly, the bacterial cultures were grown to the logarithmic growth phase and subsequently diluted in Mueller–Hinton broth (MHB) to achieve a final concentration of 1 × 10^6 CFU/ml. BMAP‐27B and the other antibiotics were prepared in twofold serial dilutions in MHB and mixed with an equal volume of bacterial suspension in 96‐well polypropylene microtiter plates.

CREC3 = settings: Escherichia coli, MHB, 1 × 10^6 CFU/ml, 16–18 h, 37°C, independent triplicates
Experimental: as §1

S. aureus ATCC = settings: Staphylococcus aureus, MHB, 1 × 10^6 CFU/ml, 16–18 h, 37°C, independent triplicates
Experimental: as §1

CRAB1 = settings: Acinetobacter baumannii, MHB, 1 × 10^6 CFU/ml, 16–18 h, 37°C, independent triplicates
Experimental: as §1

CRAB2 = settings: Acinetobacter baumannii, MHB, 1 × 10^6 CFU/ml, 16–18 h, 37°C, independent triplicates
Experimental: as §1

P. aeruginosa UCBPP-PA01 = settings: Pseudomonas aeruginosa, UCBPPPA01, MHB, 1 × 10^6 CFU/ml, 16–18 h, 37°C, independent triplicates
Experimental: as §1

[1] = test system: En. faecium (Clinical; MDR; pig, faeces), upper row; settings: Enterococcus faecium, En. faecium clinical MDR isolate, MHB, 16–18 h, 37°C, independent triplicates
Experimental: as §1

CREC4 = settings: Escherichia coli, MHB, 1 × 10^6 CFU/ml, 16–18 h, 37°C, independent triplicates
Experimental: as §1

PREC2 = settings: Escherichia coli, MHB, 1 × 10^6 CFU/ml, 16–18 h, 37°C, independent triplicates
Experimental: as §1

CREC7 = settings: Escherichia coli, MHB, 1 × 10^6 CFU/ml, 16–18 h, 37°C, independent triplicates
Experimental: as §1

PREC3 = settings: Escherichia coli, MHB, 1 × 10^6 CFU/ml, 16–18 h, 37°C, independent triplicates
Experimental: as §1

CREC2 = settings: Escherichia coli, MHB, 1 × 10^6 CFU/ml, 16–18 h, 37°C, independent triplicates
Experimental: as §1

CRCB3 = settings: Citrobacter, MHB, 1 × 10^6 CFU/ml, 16–18 h, 37°C, independent triplicates
Experimental: as §1

PREC1 = settings: Escherichia coli, MHB, 1 × 10^6 CFU/ml, 16–18 h, 37°C, independent triplicates
Experimental: as §1

CREC1 = settings: Escherichia coli, MHB, 1 × 10^6 CFU/ml, 16–18 h, 37°C, independent triplicates
Experimental: as §1

CRCB1 = settings: Citrobacter, MHB, 1 × 10^6 CFU/ml, 16–18 h, 37°C, independent triplicates
Experimental: as §1

CRKP2 = settings: Klebsiella pneumoniae, MHB, 1 × 10^6 CFU/ml, 16–18 h, 37°C, independent triplicates
Experimental: as §1

CRKP1 = settings: Klebsiella pneumoniae, MHB, 1 × 10^6 CFU/ml, 16–18 h, 37°C, independent triplicates
Experimental: as §1

CREC5 = settings: Escherichia coli, MHB, 1 × 10^6 CFU/ml, 16–18 h, 37°C, independent triplicates
Experimental: as §1

P. aeruginosa UCBPP-PA14 = settings: Pseudomonas aeruginosa, MHB, 1 × 10^6 CFU/ml, 16–18 h, 37°C, independent triplicates
Experimental: as §1

CRKP5 = settings: Klebsiella pneumoniae, MHB, 1 × 10^6 CFU/ml, 16–18 h, 37°C, independent triplicates
Experimental: as §1

Salmonella SL1344 = settings: MHB, 1 × 10^6 CFU/ml, 16–18 h, 37°C, independent triplicates
Experimental: as §1

CRKP3 = settings: Klebsiella pneumoniae, MHB, 1 × 10^6 CFU/ml, 16–18 h, 37°C, independent triplicates
Experimental: as §1

PRCB1 = settings: Citrobacter, MHB, 1 × 10^6 CFU/ml, 16–18 h, 37°C, independent triplicates
Experimental: as §1

CRCB2 = settings: Citrobacter, MHB, 1 × 10^6 CFU/ml, 16–18 h, 37°C, independent triplicates
Experimental: as §1

CRKP6 = settings: Klebsiella pneumoniae, MHB, 1 × 10^6 CFU/ml, 16–18 h, 37°C, independent triplicates
Experimental: as §1

CRKP4 = settings: Klebsiella pneumoniae, MHB, 1 × 10^6 CFU/ml, 16–18 h, 37°C, independent triplicates
Experimental: as §1

[2] = test system: En. faecium (Clinical; MDR; pig, faeces), lower row; settings: Enterococcus faecium, En. faecium clinical MDR isolate, MHB, 16–18 h, 37°C, independent triplicates
Experimental: as §1

| MIC (CREC6) [µg/mL] | MIC (CREC3) [µg/mL] | MIC (S. aureus ATCC) [µg/mL] | MIC (CRAB1) [µg/mL] | MIC (CRAB2) [µg/mL] | MIC (P. aeruginosa UCBPP-PA01) [µg/mL] | MIC [1] [µg/mL] | MIC (CREC4) [µg/mL] | MIC (PREC2) [µg/mL] | MIC (CREC7) [µg/mL] | MIC (PREC3) [µg/mL] | MIC (CREC2) [µg/mL] | MIC (CRCB3) [µg/mL] | MIC (PREC1) [µg/mL] | MIC (CREC1) [µg/mL] | MIC (CRCB1) [µg/mL] | Structure (SMILES) | MIC (CRKP2) [µg/mL] | MIC (CRKP1) [µg/mL] | MIC (CREC5) [µg/mL] | MIC (P. aeruginosa UCBPP-PA14) [µg/mL] | other results |
| --- | --- | --- | --- | --- | --- | --- | --- | --- | --- | --- | --- | --- | --- | --- | --- | --- | --- | --- | --- | --- | --- |
| 16 (≈ 27.3 µM) | 2 (≈ 3.42 µM) | 8 (≈ 13.7 µM) | > 32 | > 32 | 2 (≈ 3.42 µM) | 16 (≈ 27.3 µM) | 4 (≈ 6.83 µM) | 8 (≈ 13.7 µM) | 2 (≈ 3.42 µM) | 2 (≈ 3.42 µM) | 4 (≈ 6.83 µM) | 8 (≈ 13.7 µM) | 2 (≈ 3.42 µM) | 2 (≈ 3.42 µM) | 4 (≈ 6.83 µM) | NCC[C@H](O)C(=O)N[C@@H]1C[C@H](N)[C@@H](O[C@H]2O[C@H](CN)[C@@H](O)[C@H](O)[C@H]2O)[C@H](O)[C@H]1O[C@H]1O[C@H](CO)[C@@H](O)[C@H](N)[C@H]1O [AMK, amikacin] | – | – | – | – | – |
| > 32 | > 32 | 4 (≈ 11.4 µM) | > 32 | > 32 | > 32 | 32 (≈ 91.6 µM) | > 32 | > 32 | > 32 | > 32 | > 32 | > 32 | > 32 | > 32 | > 32 | CC1(C)S[C@@H]2[C@H](NC(=O)[C@H](N)c3ccccc3)C(=O)N2[C@H]1C(=O)O [AMP, ampicillin] | > 32 | > 32 | > 32 | > 32 | MIC (CRKP5): > 32 µg/mL; MIC (Salmonella SL1344): 8 µg/mL (≈ 22.9 µM); MIC (CRKP3): > 32 µg/mL; MIC (PRCB1): > 32 µg/mL; MIC (CRCB2): > 32 µg/mL; MIC (CRKP6): > 32 µg/mL; MIC (CRKP4): > 32 µg/mL; MIC [2]: > 32 µg/mL |

| Structure (SMILES) | MIC (CREC6) [µg/mL] | MIC (CREC3) [µg/mL] | MIC (S. aureus ATCC) [µg/mL] | MIC (CRAB1) [µg/mL] | MIC (CRAB2) [µg/mL] | MIC (P. aeruginosa UCBPP-PA01) [µg/mL] | MIC [1] [µg/mL] | MIC (CREC4) [µg/mL] | MIC (PREC2) [µg/mL] | MIC (CREC7) [µg/mL] | MIC (PREC3) [µg/mL] | MIC (CREC2) [µg/mL] | MIC (CRCB3) [µg/mL] | MIC (PREC1) [µg/mL] | MIC (CREC1) [µg/mL] | MIC (CRCB1) [µg/mL] | MIC (CRKP2) [µg/mL] | MIC (CRKP1) [µg/mL] | MIC (CREC5) [µg/mL] | MIC (P. aeruginosa UCBPP-PA14) [µg/mL] | other results |
| --- | --- | --- | --- | --- | --- | --- | --- | --- | --- | --- | --- | --- | --- | --- | --- | --- | --- | --- | --- | --- | --- |
| CC(C)(O/N=C(\C(=O)N[C@@H]1C(=O)N2C(C(=O)[O-])=C(C[n+]3ccccc3)CS[C@H]12)c1csc(N)n1)C(=O)O [CAZ, ceftazidime] | > 32 | > 32 | 4 (≈ 7.32 µM) | > 32 | > 32 | 2 (≈ 3.66 µM) | > 32 | > 32 | > 32 | > 32 | 16 (≈ 29.3 µM) | > 32 | > 32 | > 32 | > 32 | > 32 | > 32 | > 32 | > 32 | 2 (≈ 3.66 µM) | MIC (CRKP5): > 32 µg/mL; MIC (Salmonella SL1344): < 1 µg/mL; MIC (CRKP3): > 32 µg/mL; MIC (PRCB1): > 32 µg/mL; MIC (CRCB2): > 32 µg/mL; MIC (CRKP6): > 32 µg/mL; MIC (CRKP4): > 32 µg/mL; MIC [2]: > 32 µg/mL |
